Assay results published in US20040131619A1, “Thymic atrophy” (DUKE UNIVERSITY, priority 2002, published 2004).

Key:
BALB/c mice = experiment: LIF-induced acute thymic atrophy (metyrapone pre-treatment, adrenalectomy); type: in vivo; conditions: metyrapone 30 mg/kg IP 24 hours before LIF for 3 days; P<0.0094
Protocol: Normal and adrenalectomized female BALB/c mice (6-8 week) were purchased from The Jackson Laboratory (Bar Harbor, Me.). Animals were housed in specific pathogen free conditions in the Duke University Vivarium Barrier (Durham, N.C.). Mouse handling and experimental procedures were conducted in accordance with AALAC and the Duke University IACUC guidelines for animal care and use.
Animals were treated with either E. coli LPS (Sigma, L2880, St. Louis, Mo.), recombinant murine LIF (R&D Systems, Minneapolis, Minn.), goat IgG (Sigma) or anti-mouse LIF polyclonal goat IgG (R&D Systems) and metyrapone (Sigma). Mouse thymus tissue was excised following euthanasia. Half of each thymus was snap frozen in a dry ice/ETOH bath and stored in liquid nitrogen for RNA extraction and the other half was teased into a single-cell suspension as previously described (Sempowski et al, Journal of Immunology 164:2180 (2000)). […]
Normal and bilaterally adrenalectomized BALB/c mice were treated with LIF (3 μg, 3× a day) or saline for 3 days, and the degree of thymic atrophy assessed. […] To evaluate the status of LIF mRNA in the thymus of LIF injected mice, thymus LIF mRNA levels were determined in control and LIF-treated mice. […]

[1] = system: CD3+, CD4/CD8 DP thymocytes; experiment: Murine fetal thymic organ culture (FTOC); type: cell-based, mouse
Protocol: Phenotypic analysis of thymocyte suspensions was performed on a FACSVantage SE (Becton Dickinson) using fluorescein isothiocyanate-CD3, phycoerythrin-CD4, and phycoerythrin cychrome 5-CD8 (Pharmingen) as previously described (Sempowski et al, Journal of Immunology 164:2180 (2000)). Annexin V-FITC/propidium iodide (PI) staining was used to determine thymocyte apoptosis, necrosis and viability (Coulter).
FTOC were established following the methods described by Vacchio et al. (Journal of Experimental Medicine 185:2033 (1997)). Briefly, thymic lobes were removed from 17 day gestation fetal mice and were cultured in 6-well plates on Gelfoam (Pharmacia & Upjohn, Kalamazoo, Mich.) rafts. Cultures (2-4 lobes/well) were treated with murine LIF (R&D Systems) with or without metyrapone and then harvested by disruption against a 70 μm cell strainer (Becton Dickinson) with a 1 cc plunger (Becton Dickinson). Total thymocyte number per lobe was determined by hemacytometer count with trypan dye exclusion.
To directly determine if LIF can induce intrathymic corticosteroid production and thymocyte depletion, 17 day fetal thymic lobes in FTOC were treated with LIF (10 ng/ml) in the presence or absence of metyrapone (FIG. 4). Absolute numbers of CD3^+, CD4/CD8 DP thymocytes were quantitated as a measure of in vitro LIF-induced thymic atrophy after 72 hours. […]

CC(C)(C(=O)c1cccnc1)c1cccnc1 [Metyrapone, metyrapone]
inhibition of LIF-induced acute thymic atrophy (BALB/c mice): 43%
depletion of DP thymocytes ([1]; FTOC, 72 hours, agent alone (LIF 10 ng/ml; metyrapone alone), P<0.05): 8%
LIF-induced depletion of DP thymocytes ([1]; metyrapone added to LIF-treated (10 ng/ml) FTOC): prevented
